Results as given in PubChem BioAssay (NCI).
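The compound was tested at five concentrations on cells cultured in 96-well plates, with a 48-hour exposure period. The concentration for 50% growth inhibition is given as GI50. TGI: concentration producing complete growth inhibition.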

Tests used:
Test in all cases: NCI tumour cell line growth inhibition, 48 h
786-0 renal = test system: 786-0 renal
ACHN renal = test system: ACHN renal
IGROV1 ovarian = test system: IGROV1 ovarian
NCI-H226 lung = test system: NCI-H226 lung
NCI-H460 lung = test system: NCI-H460 lung
SF-539 CNS = test system: SF-539 CNS
SNB-75 CNS = test system: SNB-75 CNS
SR leukemia = test system: SR leukemia
UACC-62 melanoma = test system: UACC-62 melanoma
MOLT-4 leukemia = test system: MOLT-4 leukemia

Compound	TGI (786-0 renal) [µM]	TGI (ACHN renal) [µM]	TGI (IGROV1 ovarian) [µM]	TGI (NCI-H226 lung) [µM]	TGI (NCI-H460 lung) [µM]	TGI (SF-539 CNS) [µM]	TGI (SNB-75 CNS) [µM]	TGI (SR leukemia) [µM]	TGI (UACC-62 melanoma) [µM]	TGI (MOLT-4 leukemia) [µM]	GI50 (786-0 renal) [µM]	GI50 (ACHN renal) [µM]	GI50 (IGROV1 ovarian) [µM]	GI50 (MOLT-4 leukemia) [µM]	GI50 (NCI-H460 lung) [µM]	GI50 (SF-539 CNS) [µM]	GI50 (SNB-75 CNS) [µM]	GI50 (SR leukemia) [µM]	GI50 (UACC-62 melanoma) [µM]	GI50 (NCI-H226 lung) [µM]
NCCSCCc1ccccc1	> 100	> 100	> 100	> 100	> 100	> 100	> 100	> 100	> 100	–	–	–	–	–	–	–	–	–	–	–
CCOC(=O)C1=C(Nc2ccc(Cl)c(Cl)c2)OC/C1=N\NS(=O)(=O)c1ccc(C)cc1	> 100	–	> 100	> 100	> 100	> 100	> 100	–	> 100	> 100	–	–	–	–	–	–	–	–	–	–
Cc1cc(Cl)ccc1C1OC(=O)c2c1ccc1ccccc21 (stereo not drawn)	> 100	> 100	> 100	> 100	> 100	> 100	> 100	–	> 100	> 100	–	–	–	–	–	–	–	–	–	–
C=C1[C@@H]([C@@]2(C)C=CC(=O)C(C)(C)[C@@H]2CC(=O)OC)CC[C@@]2(C)C(c3ccoc3)OC(=O)[C@H]3O[C@]132 (stereo partly drawn)	> 100	> 100	> 100	> 100	> 100	> 100	> 100	–	> 100	> 100	–	–	–	–	–	–	–	–	–	–
CC1=C(/C=C/C(C)=C/C=C/C(C)=C/CO)C(C)(C)CCC1	34.2	> 100	57.7	50.9	> 100	34.3	–	38.3	45.9	44.4	–	–	–	–	–	–	–	–	–	–
Cc1ccc(-c2nc(N3CCCNCC3)c3oc(-c4ccc(C)cc4)nc3n2)cc1	3.25	3.13	3.19	–	3.43	3.29	3.02	0.575	3.08	3.59	1.76	1.75	1.62	1.77	1.89	1.76	1.66	0.213	1.67	–
C=CCCCc1ccc(C(O)CCCCCCCCCCCC)o1 (stereo not drawn)	28.5	30.4	44.9	34.3	60.7	40.6	32	–	43	58.8	15.2	16.8	19.5	19.6	22	22.1	15.5	–	17.7	17.8
Nn1c(N=Nc2c(O)[nH]c3c(Cl)cc(Cl)cc23)n[nH]c1=S	> 100	> 100	> 100	> 100	> 100	> 100	–	> 100	> 100	> 100	–	–	–	–	–	–	–	–	–	–
Cc1cccc(C(C)(C)C)c1NC(=O)CC1Sc2ccccc2NC1=O (stereo not drawn)	> 100	> 100	> 100	> 100	> 100	> 100	> 100	–	> 100	> 100	–	–	–	–	–	–	–	–	–	–
O=C1C=CC(CC(=O)c2ccc3ccccc3c2)O1 (stereo not drawn)	39.1	> 100	65.2	–	55.2	33.2	91.2	83.1	34.6	65.6	–	–	–	–	–	–	–	–	–	–
C=CS(=O)(=O)CCN1CC1	> 10	> 10	> 10	–	–	> 10	> 10	> 10	> 10	> 10	–	–	–	–	–	–	–	–	–	–
O=[N+]([O-])c1cccc(C2=NOC3C4CCC(C4)C23)c1 (stereo not drawn)	> 100	> 100	> 100	> 100	> 100	> 100	> 100	> 100	–	> 100	–	–	–	–	–	–	–	–	–	–
Cc1c(Sc2ccccc2)[n+](=O)c2cc(Cl)c(Cl)cc2n1[O-]	43.4	41.6	38	> 100	> 100	> 100	> 100	–	> 100	33.3	22	20.5	15.5	15	> 100	89.9	> 100	–	> 100	> 100
COc1ccc(Nc2cc(C)nc(N3CCN(c4ccnc5cc(Cl)ccc45)CC3)n2)cc1	> 100	–	> 100	> 100	> 100	–	13.4	> 100	5.93	19.7	2.61	–	4.39	2.9	1.92	–	2.47	2.68	1.71	4.7
CN(/N=N/c1nc(OCc2ccccc2)c2[nH]cnc2n1)C(=O)Oc1ccc([N+](=O)[O-])cc1	23.7	–	31.2	–	31.3	28.8	–	> 50	15.2	–	8.76	–	12.2	–	6.71	9.88	–	26.1	7.5	–
O=C(O)c1ccccc1NC(=O)C1CCCCC1	> 100	> 100	> 100	> 100	> 100	> 100	> 100	–	> 100	> 100	–	–	–	–	–	–	–	–	–	–
O=C(Nc1ccn(CCI)c(=O)n1)c1ccccc1	> 100	> 100	> 100	> 100	> 100	> 100	> 100	> 100	> 100	–	–	–	–	–	–	–	–	–	–	–
CCCCCCC(/C=N/O)C(C)(O)CCC (stereo not drawn)	> 100	> 100	> 100	> 100	> 100	> 100	> 100	–	> 100	> 100	–	–	–	–	–	–	–	–	–	–
C/C=C(\C)C(=O)N[C@H]1C(O)C[C@]2(C)C3CC[C@@]4(C)C(CC[C@@H]4C(C)N(C)C)C3CCC2C1O (stereo partly drawn)	10.6	43.4	> 43.7	> 70.2	4.59	3.46	26.6	–	4.54	17.2	4.95	10.3	13.3	4.06	2.07	1.61	10.7	–	2.18	12.1
COC(=O)C1=CC2OC1(C)CCC2=O (stereo not drawn)	> 100	> 100	> 100	> 100	> 100	> 100	> 100	> 100	–	> 100	–	–	–	–	–	–	–	–	–	–
O=C1OC(c2ccccc2)=N/C1=C\c1cccc(F)c1	> 100	> 100	> 100	92.8	> 100	–	> 100	56.4	> 100	67.9	–	–	–	–	–	–	–	–	–	–
